The results in this text go back to US20100015126A1, “Methods of Binding of Cross-Beta Structures By Chaperones” (priority 2006, published 2010).

Series [1] deals with human monocyte-derived dendritic cells. The experiment in a line: FACS: binding of misfolded proteins and BiP to human monocyte-derived dendritic cells. The series is classed as cell-based. From the text: In vitro generation of peripheral blood human monocyte-derived dendritic cells, and analyses for binding of misfolded proteins and BiP
Human DCs are generated from non-proliferating precursors selected from peripheral blood mononuclear cells (PBMCs), essentially by published methods (Sallustro and Lanzavecchia [1994], J. Exp. Med. 179 1109-1118). Relative abundant presence of CD1a, CD32, CD36, CD40, CD54, CD86, HLA-DR and CD206 and relative low content of CD14 positive, CD16 positive, CD64 positive, CD80 positive, CD83 positive and CD163 positive cells serve as a quality measure for the immature DCs. After obtaining the immature DCs upon stimulation with GM-CSF and IL-4, direct binding of misfolded proteins and BiP to the DCs is assessed by incubating 200.000 cells (2*10^6 cells/ml) for 30 minutes at 4° C. under metabolic arrested state, with 1) PBS, 2) 58 μg/ml BiP (830 nM), 4) 250 μg/ml BSA-AGE (3.6 μM), 5) BSA-AGE+BiP, 6) 250 μg/ml oxLDL, 7) oxLDL+BiP, 8) mixture of BiP-binding peptides 6BB8-11, 13 (see Table 5), 125 μg/ml+BiP, and 8) 62.5 μg/ml Aβ16-22, 62.5 μg/ml Aβ25-35+BiP. After the incubation and careful washing of the cells, binding of BiP, BSA-AGE and oxLDL is assessed with FACS, using primary antibodies monoclonal anti-FLAG antibody, monoclonal anti-glycated human fibronectin antibody 4B5 and rabbit serum with anti-human apoliprotein B-100 antibody (Dade Behring, Newark, Del., USA), and the appropriate FITC- or PE-labeled secondary antibody. Mean fluorescence intensity (MFI) ratio's are determined by measuring background fluorescence.

Series [2] has as its system freshly isolated human platelets. Put plainly: Crossbeta-induced human platelet aggregation (aggregometer). Format: cell-based. The procedure: Ex vivo Human Blood Platelet Aggregation Assay
The influence of crossbeta structure binding chaperones on blood platelet aggregation induced by crossbeta structure or crossbeta structure comprising pathogens is tested with washed platelets or with platelet rich plasma in an aggregometric assay. Freshly drawn human aspirin free blood is mixed gently with citrate buffer to avoid coagulation. Blood is spinned for 15′ at 150*g at 20° C. and supernatant is collected; platelet rich plasma (PRP). Buffer with 2.5% trisodium citrate, 1.5% citric acid and 2% glucose, pH 6.5 is added to a final volume ratio of 1:10 (buffer-PRP). After spinning down the platelets upon centrifugation for 15′ at 330*g at 20° C., the pellet is resuspended in HEPES-Tyrode buffer pH 6.5. Prostacyclin is added to a final concentration of 10 ng/ml, and the solution is centrifuged for 15′ at 330*g at 20° C., with a soft brake. The pellet is resuspended in HEPES-Tyrode buffer pH 7.2 in a way that the final platelet number is adjusted to 200,000-250,000 platelets/μl. Platelets are kept at 37° C. for at least 30′, before use in the assays, to ensure that they are in the resting state. Platelets of approximately five donors are isolated separately.
For the aggregometric assays, platelet solution is added to a glass tube and prewarmed to 37° C. A stirring magnet is added and rotation is set to 900 rpm, and the apparatus (Whole-blood aggregometer, Chrono-log, Havertown, Pa., USA) is blanked. A final volume of 1/10 of the volume of the platelet suspension is added, containing the agonist of interest and/or the premixed antagonist of interest, prediluted in HEPES-Tyrode buffer pH 7.2. Aggregation is followed in time by measuring the absorbance of the solution, that is decrease in time upon platelet aggregation. As a positive control, either 10 μg/ml collagen (Kollagenreagens Horm, NYCOMED Pharma GmbH, Linz, Austria; lot 502940), or 5 μM of synthetic thrombin receptor activating compound TRAP. In tests to analyse the effect of chaperones, 10-100 μg/ml glycated haemoglobin or 10-100 μg/ml amyloid-β is used to induce platelet aggregation. Aggregation is recorded for at least 15′.
Platelet aggregation-studies with freshly isolated human platelets were performed as described above. For aggregation studies, platelets of four separate donors were used on subsequent days.

Another series relates to HUVECs. The experiment in a line: FACS: binding of misfolded proteins and BiP to HUVECs. The series is classed as cell-based, human. As to the method:
For these experiments HUVECs were isolated by trypsinization. After trypsinization cells were collected in RPMI 1640, containing P/S and 10% FCS and centrifuged. After centrifugation cells were resuspended in RPMI medium without FCS at a concentration of 1.250.000 cells/250 μl. Individual 4-ml tubes (polypropylene, Greiner), containing 250 μl cell suspensions were made. To each tube 75 μl of a sample, containing either, • a. buffer (PBS) only, or • b. 25 μl PBS+50 μl BiP (1.16 mg/ml), or • c. 50 μl buffer with 25 μl oxLDL (1 mg/ml), or • d. 74 μl buffer with 1 μl BSA-AGE (25 mg/ml), or • e. 24 μl PBS+1 μl BSA-AGE (25 mg/ml)+50 μl BiP (1.16 mg/ml), or • f. 25 μl oxLDL (1 mg/ml)+50 μl BiP (1.16 mg/ml), • g. 1.6 μl dIgIV-65 (20 mg/ml)+73.4 μl PBS • h. […]
was added. Subsequently, the cells were incubated with the sample for approximately 30 minutes at 4° C. Next, cells were pelleted by centrifugation and the supernatant was discarded. Cells were washed subsequently with FACS buffer (PBS/0.5% BSA/0.05% m/v NaN3) at 4° C. and resuspended in FACS-buffer at approximately 1*10^5 cells/100 μl for subsequent analysis. Cell death was determined by adding 3 μl 7-aminoactinomycin D (7AAD) solution (prepared according to standard procedures). Binding of sample BSA-AGE (see elsewhere in this application for preparation details) was determined with anti-AGE monoclonal antibody 4B5 (10 μg/ml) and, after washing, with goat anti-mouse PE secondary antibodies (Jackson Immunoresearch, West Grove, USA). Binding of BSA-AGE was also assessed using the intrinsic fluorescence of BSA-AGE in the PE channel. Binding of oxidized LDL (oxLDL, oxidized for 56% following incubation with FeSO4; specific enhancement of Thioflavin T fluorescence) was determined with rabbit serum with anti-ApoB100 polyclonal antibodies at a concentration of 160 μg/ml and, after washing the cells, with FITC-labelled goat anti-rabbit antibodies (1:200, Jackson). Binding of dIgIV-65 was assessed by using anti-Human IgG antibody. BiP binding was determined using the earlier mentioned anti-FLAG antibody (M2, Sigma-Aldrich).
For orientation: A flow cytometer gives signals particle by particle.

The subject of series [3] is freshly isolated human platelets. The experiment in a line: Crossbeta-induced human platelet aggregation (aggregometer). Format: cell-based. The settings on record: 8 μM TRAP.

For the substance “BiP: Recombinant human HSP70 family chaperone BiP with C-terminal linker, FLAG-tag and His-tag, expressed in HEK 293E cells”, the “Binding of BiP to DCs (MFI ratio)” value in series [1] (BiP alone, 58 μg/ml, 30 minutes at 4° C.) is on record as 1.4. For the same substance, in series [1] (FACS, human dendritic cells, detection of BiP, signal divided by background signal), the “Binding to DCs (MFI ratio), BiP” value worked out at 1.4. Also, the “Platelet aggregation by protein alone, without activator” value in series [2] was “did not induce platelet aggregation”. Further, the “Misfolded protein induced platelet aggregation” value in series [2] (activators Aβ42t=0, HbAGE, BSA-AGE, four donors) was “potently inhibited”. For the same substance, in series [2] (donor a), the “Platelet aggregation induced by amyloid-β1-42” value was “strongly inhibited” and the “Platelet aggregation induced by crossbeta BSA-AGE” value is on record as “strongly inhibited”. In series [2] (donor b, Aβ42t=0 26.7 μg/ml), the “Platelet aggregation induced by Aβ1-42” value is reported as “inhibited”. In addition, the “Platelet aggregation induced by crossbeta BSA-AGE” value in series [2] (donor b, BSA-AGE 33.3 μg/ml) is listed as “strongly inhibited”. In series [2] (donor c), the “Aβ42 induced platelet activation” value is listed as “abolish”, the “BSA-AGE induced platelet aggregation” value is “inhibit” and the “HbAGE induced platelet aggregation” value is listed as “inhibited”. Moreover, the “HbAGE induced platelet aggregation” value in series [2] (donor d, BiP 58 μg/ml, sRAGE 37.4 μg/ml, HbAGE 80 μg/ml) was “inhibits”. Further, the “Binding of BiP to HUVECs (MFI ratio)” value in the series with HUVECs (BiP alone) is reported as 1.4. Also, in the series with HUVECs (co-incubated with dIgIV-86), the “Binding of BiP to ECs” value is recorded as “neither BiP did bind”. The TRAP-induced platelet aggregation entry in series [3] is on record as “unaffected”.
